Experimental data: US7932255B2, “2-aminocarbonyl substituted piperazine or diaza-cyclic compounds as apoptosis protein inhibitors (lap) modulators” (Novartis AG, priority 2006, dated 2011)
Read-outs that look alike come from different tables or passages of the source.

Target: T1, XIAP (Homo sapiens, UniProt P98170)
T1 construct: GST
Test: Disruption of the Smac peptide-(XIAP)BIR3 protein-protein interaction (Tables 2 and 3)
Format: binding
Method: IC50 values for Series A compounds for XIAP. An assay capable of measuring disruption of the Smac peptide-(XIAP)BIR3 protein-protein interaction is established in the art as described in Example 2. In this assay IAP Inhibitor compounds compete with an immobilized Smac peptide for occupancy of the BIR3 binding pocket of XIAP. The rationale for this strategy results from the mutually exclusive nature of either Caspase 9 or Smac binding to the BIR3 pocket.
Assays are performed and IC50 values are calculated as follows: […]
IC50 values are calculated by logarithmic regression analysis of the percentage inhibition of each compound at 4 concentrations (usually 3- or 10-fold dilution series starting at 10 μM). In each experiment, the actual inhibition by reference compound is used for normalization of IC50 values to the basis of an average value of the reference inhibitor: Normalized IC50=measured IC50 average ref. IC50/measured ref. IC50
Activity determinations of compounds herein using the testing method described herein and as are well known in the art, are used with the following test compounds of formula (I). […] “Activity” as used herein is defined as having IC50 values for IAP target inhibition of less than 10 μM. Specifically, in the table:
IC50 values for Series B compounds are provided for XIAP. Assays are performed as described above using methods well known in the art.

[1] = Series B compounds, Table 3, read-out: XIXP IC50
[2] = Series A compounds, Table 2, read-out: XIAP IC50

T1 sequence (P98170 248-358 limits assumed, species assumed): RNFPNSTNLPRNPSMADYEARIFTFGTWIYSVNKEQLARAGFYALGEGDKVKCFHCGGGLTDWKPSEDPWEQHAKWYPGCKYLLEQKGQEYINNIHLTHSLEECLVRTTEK

Row | Compound | IC50 [1] [µM] | IC50 [2] [µM] | also measured
1 | CN[C@@H](C)C(=O)N[C@H](C(=O)N1CCN(Cc2ccccc2)C[C@H]1C(=O)NCC1CCCC1)C(C)C [Compound 81, (S)-4-Benzyl-1-[(S)-3-methyl-2-((S)-2-methylamino-propionylamino)-butyryl]-piperazine-2-carboxylic acid cyclopentylmethyl-amide] | < 10 | – | –
2 | CN[C@@H](C)C(=O)N[C@H](C(=O)N1CCN(C(=O)Oc2ccc(F)cc2)C[C@H]1C(=O)NC1CCCc2ccccc21)C(C)C (stereo partly drawn) [Compound 34, (S)-4-[(S)-3-Methyl-2-((S)-2-methylamino-propionylamino)-butyryl]-3-(1,2,3,4-tetrahydro-naphthalen-1-ylcarbamoyl)-piperazine-1-carboxylic acid 4-fluoro-phenyl ester] | – | – | IC50: < 10 µM
3 | CN[C@@H](C)C(=O)N[C@H](C(=O)N1CCN(S(=O)(=O)c2ccc(F)cc2)C[C@H]1C(=O)NC1CCCc2ccccc21)C(C)C (stereo partly drawn) [Compound 35, (S)-4-(4-Fluoro-benzenesulfonyl)-1-[(S)-3-methyl-2-((S)-2-methylamino-propionylamino)-butyryl]-piperazine-2-carboxylic acid (1,2,3,4-tetrahydro-naphthalen-1-yl)-amide] | – | < 10 | –
4 | CN[C@@H](C)C(=O)N[C@H](C(=O)N1CCN(Cc2ccc(OC)cc2)C[C@H]1C(=O)NC1CCCc2ccccc21)C(C)C (stereo partly drawn) [Compound 6, (S)-4-(4-Methoxy-benzyl)-1-[(S)-3-methyl-2-((S)-2-methylamino-propionylamino)-butyryl]-piperazine-2-carboxylic acid (1,2,3,4-tetrahydro-naphthalen-1-yl)-amide] | – | < 10 | –
5 | CN[C@@H](C)C(=O)N[C@H](C(=O)N1CCN(CCOC)C[C@H]1C(=O)NC1CCCc2ccccc21)C(C)C (stereo partly drawn) [Compound 38, (S)-4-(2-Methoxy-ethyl)-1-[(S)-3-methyl-2-((S)-2-methylamino-propionylamino)-butyryl]-piperazine-2-carboxylic acid (1,2,3,4-tetrahydro-naphthalen-1-yl)-amide] | – | < 10 | –
6 | CCCCN1CCN(C(=O)[C@@H](NC(=O)[C@H](C)NC)C(C)C)[C@H](C(=O)NC2CCCc3ccccc32)C1 (stereo partly drawn) [Compound 33, (S)-4-Butyl-1-[(S)-3-methyl-2-((S)-2-methylamino-propionylamino)-butyryl]-piperazine-2-carboxylic acid (1,2,3,4-tetrahydro-naphthalen-1-yl)-amide] | – | < 10 | –
7 | CN[C@@H](C)C(=O)N[C@H](C(=O)N1CCN(CC2CCCC2)C[C@H]1C(=O)NC1CCCc2ccccc21)C(C)C (stereo partly drawn) [Compound 7, (S)-4-Cyclopentylmethyl-1-[(S)-3-methyl-2-((S)-2-methylamino-propionylamino)-butyryl]-piperazine-2-carboxylic acid (1,2,3,4-tetrahydro-naphthalen-1-yl)-amide] | – | < 10 | –
8 | CN[C@@H](C)C(=O)N[C@H](C(=O)N1CCN(Cc2cccc3[nH]ccc23)C[C@H]1C(=O)NC1CCCc2ccccc21)C(C)C (stereo partly drawn) [Compound 15, (S)-4-(1H-Indol-4-ylmethyl)-1-[(S)-3-methyl-2-((S)-2-methylamino-propionylamino)-butyryl]-piperazine-2-carboxylic acid (1,2,3,4-tetrahydro-naphthalen-1-yl)-amide] | – | < 10 | –
9 | CN[C@@H](C)C(=O)N[C@H](C(=O)N1CCN(Cc2ccccc2)C[C@H]1C(=O)NC1CCc2ccccc2C1)C(C)C (stereo partly drawn) [Compound 74, (S)-4-Benzyl-1-[(S)-3-methyl-2-((S)-2-methylamino-propionylamino)-butyryl]-piperazine-2-carboxylic acid (1,2,3,4-tetrahydro-naphthalen-2-yl)-amide] | < 10 | – | –
10 | CN[C@@H](C)C(=O)N[C@H](C(=O)N1CCN(Cc2ccccc2)C[C@H]1C(=O)NCc1ccccc1)C(C)C [Compound 65, (S)-4-Benzyl-1-[(S)-3-methyl-2-((S)-2-methylamino-propionylamino)-butyryl]-piperazine-2-carboxylic acid benzylamide] | < 10 | – | –
11 | CN[C@@H](C)C(=O)N[C@H](C(=O)N1CCN(Cc2ccccc2)C[C@H]1C(=O)NCCC(C)C)C(C)C [Compound 83, (S)-4-Benzyl-1-[(S)-3-methyl-2-((S)-2-methylamino-propionylamino)-butyryl]-piperazine-2-carboxylic acid (3-methyl-butyl)-amide] | > 10 | – | –
12 | CN[C@@H](C)C(=O)N[C@H](C(=O)N1CCN(Cc2ccccc2)C[C@H]1C(=O)NCCc1ccc(F)cc1)C(C)C [Compound 71, (S)-4-Benzyl-1-[(S)-3-methyl-2-((S)-2-methylamino-propionylamino)-butyryl]-piperazine-2-carboxylic acid [2-(4-fluoro-phenyl)-ethyl]-amide] | < 10 | – | –
13 | CC(C)[C@H](NC(=O)[C@H](C)N(C)C(=O)OC(C)(C)C)C(=O)N1CCN(Cc2ccccc2)C[C@H]1C(=O)N[C@@H]1CCCc2ccccc21 [Compound 57, [(S)-1-((S)-1-{(S)-4-Benzyl-2-[(R)-(1,2,3,4-tetrahydro-naphthalen-1-yl)carbamoyl]-piperazine-1-carbonyl}-2-methyl-propylcarbamoyl)-ethyl]-methyl-carbamic acid tert-butyl ester] | – | > 10 | –
14 | CN[C@@H](C)C(=O)N[C@H](C(=O)N1CCN(Cc2ccccc2)C[C@H]1C(=O)NC1CCCc2ccccc21)C(C)C (stereo partly drawn) [Compound 53, (S)-4-Benzyl-1-[(S)-3-methyl-2-((S)-2-methylamino-propionylamino)-butyryl]-piperazine-2-carboxylic acid (1,2,3,4-tetrahydro-naphthalen-1-yl)-amide] | – | < 10 | –
15 | CN[C@@H](C)C(=O)N[C@H](C(=O)N1CCN(C(=O)N2CCCC2)C[C@H]1C(=O)NC1CCCc2ccccc21)C(C)C (stereo partly drawn) [Compound 47, (S)-1-[(S)-3-Methyl-2-((S)-2-methylamino-propionylamino)-butyryl]-4-(pyrrolidine-1-carbonyl)-piperazine-2-carboxylic acid (1,2,3,4-tetrahydro-naphthalen-1-yl)-amide] | – | < 10 | –
16 | CN[C@@H](C)C(=O)N[C@H](C(=O)N1CCN(Cc2ccc(OC(F)(F)F)cc2)C[C@H]1C(=O)NC1CCCc2ccccc21)C(C)C (stereo partly drawn) [Compound 23, (S)-1-[(S)-3-Methyl-2-((S)-2-methylamino-propionylamino)-butyryl]-4-(4-trifluoromethoxy-benzyl)-piperazine-2-carboxylic acid (1,2,3,4-tetrahydro-naphthalen-1-yl)-amide] | – | < 10 | –
17 | CN[C@@H](C)C(=O)N[C@H](C(=O)N1CCN(Cc2ccc(C)cc2)C[C@H]1C(=O)NC1CCCc2ccccc21)C(C)C (stereo partly drawn) [Compound 51, (S)-4-(4-Methyl-benzyl)-1-[(S)-3-methyl-2-((S)-2-methylamino-propionylamino)-butyryl]-piperazine-2-carboxylic acid (1,2,3,4-tetrahydro-naphthalen-1-yl)-amide] | – | < 10 | –
18 | CN[C@@H](C)C(=O)N[C@H](C(=O)N1CCN(Cc2ccccc2)C[C@H]1C(=O)NC1c2ccccc2-c2ccccc21)C(C)C [Compound 75, (S)-4-Benzyl-1-[(S)-3-methyl-2-((S)-2-methylamino-propionylamino)-butyryl]-piperazine-2-carboxylic acid (9H-fluoren-9-yl)-amide] | < 10 | – | –
19 | CN[C@@H](C)C(=O)N[C@H](C(=O)N1CCN(Cc2ccc(NC(C)=O)cc2)C[C@H]1C(=O)NC1CCCc2ccccc21)C(C)C (stereo partly drawn) [Compound 16, (S)-4-(4-Acetylamino-benzyl)-1-[(S)-3-methyl-2-((S)-2-methylamino-propionylamino)-butyryl]-piperazine-2-carboxylic acid (1,2,3,4-tetrahydro-naphthalen-1-yl)-amide] | – | < 10 | –
20 | CCCN1CCN(C(=O)[C@@H](NC(=O)[C@H](C)NC)C(C)C)[C@H](C(=O)NC2CCCc3ccccc32)C1 (stereo partly drawn) [Compound 25, (S)-1-[(S)-3-Methyl-2-((S)-2-methylamino-propionylamino)-butyryl]-4-propyl-piperazine-2-carboxylic acid (1,2,3,4-tetrahydro-naphthalen-1-yl)-amide] | – | < 10 | –
21 | CN[C@@H](C)C(=O)N[C@H](C(=O)N1CCN(CCC(F)(F)F)C[C@H]1C(=O)NC1CCCc2ccccc21)C(C)C (stereo partly drawn) [Compound 20, (S)-1-[(S)-3-Methyl-2-((S)-2-methylamino-propionylamino)-butyryl]-4-(3,3,3-trifluoro-propyl)-piperazine-2-carboxylic acid (1,2,3,4-tetrahydro-naphthalen-1-yl)-amide] | – | < 10 | –
22 | CN[C@@H](C)C(=O)N[C@H](C(=O)N1CCN(Cc2ccccc2)C[C@H]1C(=O)N[C@H](C)c1ccccc1)C(C)C [Compound 87, (S)-4-Benzyl-1-[(S)-3-methyl-2-((S)-2-methylamino-propionylamino)-butyryl]-piperazine-2-carboxylic acid ((R)-1-phenyl-ethyl)-amide] | < 10 | – | –
23 | CN[C@@H](C)C(=O)N[C@H](C(=O)N1CCN(Cc2ccccc2)C[C@H]1C(=O)NCc1ccco1)C(C)C [Compound 82, (S)-4-Benzyl-1-[(S)-3-methyl-2-((S)-2-methylamino-propionylamino)-butyryl]-piperazine-2-carboxylic acid (furan-2-ylmethyl)-amide] | < 10 | – | –
24 | CN[C@@H](C)C(=O)N[C@H](C(=O)N1CCN(CCc2ccccc2)C[C@H]1C(=O)NC1CCCc2ccccc21)C(C)C (stereo partly drawn) [Compound 46, (S)-1-[(S)-3-Methyl-2-((S)-2-methylamino-propionylamino)-butyryl]-4-phenethyl-piperazine-2-carboxylic acid (1,2,3,4-tetrahydro-naphthalen-1-yl)-amide] | – | < 10 | –
